Laboratory results reported in US20220117266A1, “NICKEL CHELATION THERAPY” (priority 2019, published 2022).

System: C. jejuni 81-176
Assay: Growth inhibition, liquid 96-well checkerboard (OD600, MIC, MBC)
Type: cell-based, Campylobacter jejuni
Conditions: 24 h
Protocol: Growth inhibition assays: liquid (96-well) plates experiments. This type of experiment can only be conducted with C. jejuni since the gas requirement for C. concisus (H2-enriched microaerobic) is not compatible with the use of 96-well plates. C. jejuni cells were grown as described above, harvested, and resuspended in sterile NaCl (8 g/L) to an OD600 of 0.1, corresponding approximately to 5×10^8 to 1×10^9 cells/mL. […] Wells were serially (2-fold) diluted in each direction (horizontal and vertical) to introduce all combinations. Wells with no DMG or metal compounds served as (positive) growth controls, and wells with no bacteria served as background (negative growth) controls. A typical protocol and loading plan are described in Table 7. The starting inoculum was at OD600 of 0.05, which corresponds approximately to 2.5×10^8 cells/mL to 5×10^8 cells/mL. After 24 hours incubation under microaerobic conditions at 37° C., OD600 was recorded using a 96 well-plate reader (Microtek). […] Resulting growth (or lack of growth) was examined after overnight culturing; the lowest concentration that inhibits 99.9% of the original culture was defined as MBC. MIC and MBC were determined based on tests (plates) done in triplicate.

CC(=NO)C(C)=NO [DMG, dimethylglyoxime]
OD600 (DMG 0.062 mM + CuSO4 0 uM): 0.31
OD600 (DMG 0.062 mM + CuSO4 2 uM): 0.37
OD600 (DMG 0.062 mM + CuSO4 4 uM): 0.31
OD600 (DMG 0.062 mM + CuSO4 8 uM): 0.33
OD600 (DMG 0.062 mM + CuSO4 16 uM): 0.34
OD600 (DMG 0.062 mM + CuSO4 32 uM): 0.24
OD600 (DMG 0.062 mM + CuSO4 64 uM): 0.22
OD600 (DMG 0.062 mM + CuSO4 128 uM): 0.24
OD600 (DMG 0.062 mM + CuSO4 256 uM): 0.35
OD600 (DMG 0.062 mM + CuSO4 512 uM): 0.34
OD600 (DMG 0.062 mM + CuSO4 1024 uM): 0.47
OD600 (DMG 0.125 mM + CuSO4 0 uM): 0.25
OD600 (DMG 0.125 mM + CuSO4 2 uM): 0.31
OD600 (DMG 0.125 mM + CuSO4 4 uM): 0.27
OD600 (DMG 0.125 mM + CuSO4 8 uM): 0.31
OD600 (DMG 0.125 mM + CuSO4 16 uM): 0.33
OD600 (DMG 0.125 mM + CuSO4 32 uM): 0.26
OD600 (DMG 0.125 mM + CuSO4 64 uM): 0.23
OD600 (DMG 0.125 mM + CuSO4 128 uM): 0.24
OD600 (DMG 0.125 mM + CuSO4 256 uM): 0.27
OD600 (DMG 0.125 mM + CuSO4 512 uM): 0.34
OD600 (DMG 0.125 mM + CuSO4 1024 uM): 0.47
OD600 (DMG 0.25 mM + CuSO4 0 uM): 0.26
OD600 (DMG 0.25 mM + CuSO4 2 uM): 0.31
OD600 (DMG 0.25 mM + CuSO4 4 uM): 0.24
OD600 (DMG 0.25 mM + CuSO4 8 uM): 0.37
OD600 (DMG 0.25 mM + CuSO4 16 uM): 0.33
OD600 (DMG 0.25 mM + CuSO4 32 uM): 0.25
OD600 (DMG 0.25 mM + CuSO4 64 uM): 0.22
OD600 (DMG 0.25 mM + CuSO4 128 uM): 0.24
OD600 (DMG 0.25 mM + CuSO4 256 uM): 0.24
OD600 (DMG 0.25 mM + CuSO4 512 uM): 0.27
OD600 (DMG 0.25 mM + CuSO4 1024 uM): 0.30
OD600 (DMG 0.5 mM + CuSO4 0 uM): 0.22
OD600 (DMG 0.5 mM + CuSO4 2 uM): 0.31
OD600 (DMG 0.5 mM + CuSO4 4 uM): 0.25
OD600 (DMG 0.5 mM + CuSO4 8 uM): 0.23
OD600 (DMG 0.5 mM + CuSO4 16 uM): 0.34
OD600 (DMG 0.5 mM + CuSO4 32 uM): 0.21
OD600 (DMG 0.5 mM + CuSO4 64 uM): 0.19
OD600 (DMG 0.5 mM + CuSO4 128 uM): 0.20
OD600 (DMG 0.5 mM + CuSO4 256 uM): 0.29
OD600 (DMG 0.5 mM + CuSO4 512 uM): 0.14
OD600 (DMG 0.5 mM + CuSO4 1024 uM): 0.09
OD600 (DMG 1 mM + CuSO4 0 uM): 0.20
OD600 (DMG 1 mM + CuSO4 2 uM): 0.27
OD600 (DMG 1 mM + CuSO4 4 uM): 0.23
OD600 (DMG 1 mM + CuSO4 8 uM): 0.21
OD600 (DMG 1 mM + CuSO4 16 uM): 0.37
OD600 (DMG 1 mM + CuSO4 32 uM): 0.24
OD600 (DMG 1 mM + CuSO4 64 uM): 0.19
OD600 (DMG 1 mM + CuSO4 128 uM): 0.10
OD600 (DMG 1 mM + CuSO4 256 uM): 0.02
OD600 (DMG 1 mM + CuSO4 512 uM): 0.02
OD600 (DMG 1 mM + CuSO4 1024 uM): 0.04
OD600 (DMG 2 mM + CuSO4 0 uM): 0.24
OD600 (DMG 2 mM + CuSO4 2 uM): 0.34
OD600 (DMG 2 mM + CuSO4 4 uM): 0.25
OD600 (DMG 2 mM + CuSO4 8 uM): 0.26
OD600 (DMG 2 mM + CuSO4 16 uM): 0.24
OD600 (DMG 2 mM + CuSO4 32 uM): 0.17
OD600 (DMG 2 mM + CuSO4 64 uM): 0.01
OD600 (DMG 2 mM + CuSO4 128 uM): 0.01
OD600 (DMG 2 mM + CuSO4 256 uM): 0.01
OD600 (DMG 2 mM + CuSO4 512 uM): 0.02
OD600 (DMG 2 mM + CuSO4 1024 uM): 0.04
OD600 (DMG 4 mM + CuSO4 0 uM): 0.19
OD600 (DMG 4 mM + CuSO4 2 uM): 0.26
OD600 (DMG 4 mM + CuSO4 4 uM): 0.15
OD600 (DMG 4 mM + CuSO4 8 uM): 0.04
OD600 (DMG 4 mM + CuSO4 16 uM): 0.00
OD600 (DMG 4 mM + CuSO4 32 uM): 0.00
OD600 (DMG 4 mM + CuSO4 64 uM): 0.01
OD600 (DMG 4 mM + CuSO4 128 uM): 0.01
OD600 (DMG 4 mM + CuSO4 256 uM): 0.02
OD600 (DMG 4 mM + CuSO4 512 uM): 0.02
OD600 (DMG 4 mM + CuSO4 1024 uM): 0.04
